Results published in US20190160035A1, “METHOD OF TREATMENT” (QBIOTICS LIMITED, priority 2016, published 2019).
Entries after “also recorded” stand apart in the source; their conditions may differ.

Assays:
[1] = test system: cutaneous Mast Cell Tumor (MCT); assay: Example 2: dose de-escalation study (1.0, 0.5, 0.2 mg/mL; 0.5 mL per cm^3 tumor), RECIST v.1.1 tumor response; assay type: in vivo, dogs; conditions: for RECIST classification: Day 21, one value per dog
Experimental: A multi-site, unmasked, uncontrolled, non-randomized dosage characterization study in dogs was performed under field conditions using dose de-escalation.
Dogs were enrolled in the study as they presented to participating veterinary practices meeting the necessary eligibility criteria. As the study design was a dose de-escalation study, dogs were allocated to the highest dose initially (1.0 mg Compound 1 per mL). Each dose comprised a total cohort of 10 dogs participating across all clinics. Once the cohort of 10 dogs was treated at the highest dose, subsequent dogs were assigned to the 2nd cohort (0.5 mg Compound 1 per mL) and dosing continued through de-escalation until completion of 7 evaluable enrolments in the 3rd cohort (0.2 mg Compound 1 per mL).
Each Compound 1 preparation (1.0, 0.5, and 0.2 mg/mL) was pre-prepared in a 30% propylene glycol, 30 mM Acetate buffer pH 4.0 solution.
Compound 1 was administered to each dog at 0.5 mL per cm^3 of tumor volume as determined on the day of dosing. Digital calipers were used to measure tumor axes.
Wherever possible, the tumor and a 2 cm border surrounding the tumor was shaved prior to treatment. To deliver the drug formulation, the needle of the dosing syringe was inserted into the tumor at the injection point and moved in a radial manner in 2- and 3-dimensions with approximately 0.1 mL of formulation delivered to each 0.2 cm^3 of tumor mass. Study dogs were clinically examined at approximately 24 and 48 hours, 7, 14 and 21 days post-treatment.
Prophylactic and supportive medications considered for use in this study to prevent paraneoplastic MCT-induced adverse events such as Darier's sign and gastric upset included cetrizine, chlorpheniramine, omeprazole, acetylpromazine, methadone and meloxicam. Some supportive therapies were given up to 5 days post treatment (see Table 14). Additional approved supportive therapies (if required) included fentanyl (patch) or tramadol analgesia, or antibiotic (amoxicillin/clavulanic acid).
Determination of efficacy was based on objective tumor measurements made according to the RECIST v.1.1 guidelines (Eisenhauer et al., 2009) using unidirectional tumor measurements.
Pairwise comparison of categorical responses to treatment between treatment groups at each time point post-treatment were compared using Fisher's Exact Test. Using the RECIST classification (Eisenhauer et al., 2009), tumor data was analysed to determine the effectiveness of, and differences between, treatments. Generalised linear modeling was used to examine the combined effects of treatment dose, time post-treatment and other potentially explanatory variables. Generalised estimating equations with appropriate error structure (and controlled for repeated measurements of individuals) were used to examine categorical response to treatment and changes in tumor volume measurement. Tumor volume analysis was also controlled for pre-treatment tumor volume.
MCT measurements were recorded using digital calipers. Measurements were taken pre-treatment and at 7(±1), 14(±1) and 21(±2) days post treatment. The length (cm) was designated the longest measurable axis; the width (cm) was the tumor at the widest point perpendicular to the length; gentle manipulation of the MCT to measure the depth (cm) using the calipers was considered acceptable. Determination of efficacy was based on objective tumor measurements made according to the RECIST v.1.1 guideline using the longest unidirectional measurement (Eisenhauer et al. 2009) recorded at each timepoint. RECIST criteria were only applied to target lesions as Compound 1 is not intended as a systemic therapy. […] RECIST v.1.1 results are summarized below in Table 18.

[2] = Example 7: injection site abnormalities after IVP dosing (VCOG CTCAE); assay type: in vivo, dogs; set-up: key to VCOG CTCAE Magnitude of injection site abnormality: Grade 1: Mild; asymptomatic or mild symptoms; clinical signs or diagnostic observations only; intervention not indicated; key to VCOG CTCAE Relationship to IVP of injection site abnormality: Unrelated: Clearly not related to IVP; Unlikely: Doubtfully related to IVP; Possible: May be related to IVP; Probably: Likely related to IVP; Definite: Clearly related to IVP
From the text: Injection site abnormalities were reported within the immediate post-injection period for six cases. […] An analgesic was prescribed to start on day 0 for one of the six cases (SI-11). […] The VCOG CTCAE classifications of these injection site abnormalities for magnitude and relationship to IVP as determined by the investigator are listed in Table 35.

[3] = immediate post-injection period

C/C=C(\C)C(=O)O[C@@H]1[C@@H](C)[C@@]2(O)[C@H]([C@@H]3C(C)(C)[C@]13OC(=O)[C@@H](C)CC)[C@@H]1O[C@]1(CO)[C@@H](O)[C@]1(O)C(=O)C(C)=C[C@H]12 [Compound 1, 12-tigloyl-13-(2-methylbutanoyl)-6,7-epoxy-4,5,9,12,13,20-hexahydroxy-1-tigliaen-3-one]
Number of dogs with complete response (CR) ([1]; cohort 1, 1.0 mg/mL, 10 dogs): 9
RECIST classification ([1]; cohort 2, 0.5 mg Compound 1/mL): PR (partial response (PR, at least 30% decrease in the longest diameter of target lesion)); also recorded: PD (progressive disease (PD, greater than 20% increase in the target lesion))
Number of dogs with complete response (CR) ([1]; cohort 2, 0.5 mg/mL, 10 dogs): 5
Number of dogs with partial response (PR) ([1]; cohort 2, 0.5 mg/mL, 10 dogs): 1
Number of dogs with progressive disease (PD) ([1]; cohort 2, 0.5 mg/mL, 10 dogs): 1
RECIST classification ([1]; cohort 3, 0.2 mg Compound 1/mL): PR (partial response (PR, at least 30% decrease in the longest diameter of target lesion))
Number of dogs showing efficacy (greater than a 70% reduction in tumor volume at 21 days) ([1]; cohort 3, 0.2 mg/mL): < 3
Number of dogs with complete response (CR) ([1]; cohort 3, 0.2 mg/mL, 7 dogs): 2
Number of dogs with partial response (PR) ([1]; cohort 3, 0.2 mg/mL, 7 dogs): 1
Mitotic nuclei in post-surgical biopsy material of residual tumor ([1]; dog GCV-107, cohort 1): no mitotic nuclei identified
Total tumor volume reduction (modified ellipsoidal calculation) ([1]; dog GCV-107, cohort 1, Day 21): 36%
Unidirectional tumor measurement (length) decrease ([1]; dog GCV-107, cohort 1, by Day 21): 23%
Number of cases with injection site abnormalities in the immediate post-injection period ([2]; 11 cases): six
Number of cases that exhibited restlessness [2, 3]: three
Number of cases that experienced pain [2, 3]: Three
Day by which injection site abnormalities resolved ([2]; pain and restlessness): ≤ 1 days
VCOG CTCAE Relationship to IVP of injection site abnormality ([2]; per case, as determined by the investigator): Definite; also recorded: Possible; also recorded: Probable
VCOG CTCAE Magnitude of injection site abnormality ([2]; per case, immediate post-injection period): Grade 1^f
